Key:
late watergrass = assay: Test Example 1: herbicidal activity, application before weed generation under submerged conditions (Table 16, symbol A); assay type: in vivo, late watergrass (Echinochloa oryzicola)
Summary of the method: (§1)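 Emulsion formulation, water-diluted to set dose, was put onto the flooded surface (4 cm depth, alluvial soil) the same day weeds were sown and 2.5-leaf rice transplanted. After 3 weeks at 25-30 °C under glass, each species was rated 0 (≤5% kill) to 5 (≥90% kill).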

Japanese bulrush = assay: Test Example 1: herbicidal activity, application before weed generation under submerged conditions (Table 16, symbol B); assay type: in vivo, Japanese bulrush (Schoenoplectus juncoides)
Summary of the method: as §1

oval-leafed pondweed = assay: Test Example 1: herbicidal activity, application before weed generation under submerged conditions (Table 16, symbol C); assay type: in vivo, oval-leafed pondweed (Monochoria vaginalis)
Summary of the method: as §1

barnyard grass = assay: Test Example 3: herbicidal effect by foliage application, Wagner pot (Table 18, symbol H); assay type: in vivo, barnyard grass (Echinochloa crus-galli)
Summary of the method: (§2)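 Plants were sown in alluvial soil held under 0.1–0.5 cm standing water and grown 14 days in a greenhouse at 25–30 °C. An emulsifiable formulation, water-diluted to the set dose, was then sprayed onto the foliage, and effects were scored three weeks later using previously defined criteria.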

Chinese sprangletop = assay: Test Example 3: herbicidal effect by foliage application, Wagner pot (Table 18, symbol D); assay type: in vivo, chinese sprangletop (Leptochloa chinensis)
Summary of the method: as §2

rice flat sedge = assay: Test Example 3: herbicidal effect by foliage application, Wagner pot (Table 18, symbol E); assay type: in vivo, rice flat sedge (Cyperus iria)
Summary of the method: as §2

Italian ryegrass [1] = assay: Test Example 4: herbicidal effect by soil treatment (Table 19, symbol K); assay type: in vivo, Italian ryegrass (Lolium multiflorum)
Summary of the method: (§3)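 Herbicidal effect was rated 3 weeks after treatment, using the scoring criteria of an earlier test. The compound, formulated as an emulsion and diluted in water to a set herbicide amount, had been sprayed uniformly on soil over freshly sown seeds. Growth took place in a greenhouse at 25° C. to 30° C.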

windgrass = assay: Test Example 4: herbicidal effect by soil treatment (Table 19, symbol L); assay type: in vivo, windgrass (Apera spica-venti)
Summary of the method: as §3

lambsquarters [2] = assay: Test Example 4: herbicidal effect by soil treatment (Table 19, symbol O); assay type: in vivo, lambsquarters (Chenopodium album)
Summary of the method: as §3

chickweed = assay: Test Example 4: herbicidal effect by soil treatment (Table 19, symbol P); assay type: in vivo, common chickweed (Stellaria media)
Summary of the method: as §3

southern crabgrass = assay: Test Example 5: herbicidal effect by foliage application, plastic box (Table 20, symbol F); assay type: in vivo, southern crabgrass (Digitaria ciliaris); details: foliage application
Summary of the method: (§4)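 Foliar spray test: emulsion formulation diluted in water to a set application rate, sprayed onto 14-day-old plants raised in diluvial soil at 25° C to 30° C under glass. Both herbicidal effect and crop effect rated visually three weeks later.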

green foxtail = assay: Test Example 5: herbicidal effect by foliage application, plastic box (Table 20, symbol G); assay type: in vivo, green foxtail (Setaria viridis); details: foliage application
Summary of the method: as §4

wild oat = assay: Test Example 5: herbicidal effect by foliage application, plastic box (Table 20, symbol I); assay type: in vivo, wild oat (Avena fatua); details: foliage application
Summary of the method: as §4

blackgrass = assay: Test Example 5: herbicidal effect by foliage application, plastic box (Table 20, symbol J); assay type: in vivo, blackgrass (Alopecurus myosuroides); details: foliage application
Summary of the method: as §4

Italian ryegrass [3] = assay: Test Example 5: herbicidal effect by foliage application, plastic box (Table 20, symbol K); assay type: in vivo, Italian ryegrass (Lolium multiflorum); details: foliage application
Summary of the method: as §4

velvetleaf = assay: Test Example 5: herbicidal effect by foliage application, plastic box (Table 20, symbol M); assay type: in vivo, velvetleaf (Abutilon theophrasti); details: foliage application
Summary of the method: as §4

lambsquarters [4] = assay: Test Example 5: herbicidal effect by foliage application, plastic box (Table 20, symbol O); assay type: in vivo, lambsquarters (Chenopodium album); details: foliage application
Summary of the method: as §4

[5] = 320 g/ha, 3 weeks after application
[6] = amount of applied herbicide 246 g/ha
[7] = 246 g/ha, three weeks after application

## C=Cc1ccc(-c2sc3ccc(F)cc3c2-c2c(O)c(C)nn(C)c2=O)cc1 [2-018]
Late watergrass; 320 g/ha applied herbicide
  Herbicidal effect on A: late watergrass (grade 0-5): 0 (Herbicidal rate of 5% or less (almost no effect))
Japanese bulrush; 320 g/ha applied herbicide
  Herbicidal effect on B: Japanese bulrush (grade 0-5): 3 (Herbicidal rate of 40% or more and less than 70%)
oval-leafed pondweed; 320 g/ha applied herbicide
  Herbicidal effect on C: oval-leafed pondweed (grade 0-5): 0 (Herbicidal rate of 5% or less (almost no effect))
Barnyard grass; 320 g/ha
  herbicidal effect on H (barnyard grass), rating 0-5: 5 (Herbicidal rate of 90% or more (almost completely withered))
Chinese sprangletop; 320 g/ha
  herbicidal effect on D (Chinese sprangletop), rating 0-5: 4 (Herbicidal rate of 70% or more and less than 90%)
Rice flat sedge; 320 g/ha
  herbicidal effect on E (rice flat sedge), rating 0-5: 5 (Herbicidal rate of 90% or more (almost completely withered))
Italian ryegrass [1]; 320 g/ha
  herbicidal effect rating, K: Italian ryegrass: 4 (Herbicidal rate of 70% or more and less than 90%)
windgrass; 320 g/ha
  herbicidal effect rating, L: windgrass: 2 (Herbicidal rate of 20% or more and less than 40%)
Lambsquarters [2]; 320 g/ha
  herbicidal effect rating, O: lambsquarters: 4 (Herbicidal rate of 70% or more and less than 90%)
chickweed; 320 g/ha
  herbicidal effect rating, P: chickweed: 3 (Herbicidal rate of 40% or more and less than 70%)
Southern crabgrass; [5]
  effect on southern crabgrass (F): 1 (Herbicidal rate of 5% or more and less than 20%)
Green foxtail; [5]
  effect on green foxtail (G): 5 (Herbicidal rate of 90% or more (almost completely withered))
Wild oat; [5]
  effect on wild oat (I): 5 (Herbicidal rate of 90% or more (almost completely withered))
blackgrass; [5]
  effect on blackgrass (J): 1 (Herbicidal rate of 5% or more and less than 20%)
Italian ryegrass [3]; [5]
  effect on Italian ryegrass (K): 4 (Herbicidal rate of 70% or more and less than 90%)
velvetleaf; [5]
  effect on velvetleaf (M): 5 (Herbicidal rate of 90% or more (almost completely withered))
Lambsquarters [4]; [5]
  effect on lambsquarters (O): 5 (Herbicidal rate of 90% or more (almost completely withered))

## CCCC(=O)Oc1c(C)nn(C)c(=O)c1-c1c(-c2ccc(F)cc2OCC)oc2ccc(C)cc12 [9-010]
Late watergrass; [6]
  Herbicidal effect, A: late watergrass: 5 (Herbicidal rate of 90% or more (almost completely withered))
Japanese bulrush; [6]
  Herbicidal effect, B: Japanese bulrush: 3 (Herbicidal rate of 40% or more and less than 70%)
oval-leafed pondweed; [6]
  Herbicidal effect, C: oval-leafed pondweed: 3 (Herbicidal rate of 40% or more and less than 70%)
Barnyard grass; [6]
  Herbicidal effect on H (barnyard grass), foliage application: 4 (Herbicidal rate of 70% or more and less than 90%)
Chinese sprangletop; [6]
  Herbicidal effect on D (Chinese sprangletop), foliage application: 5 (Herbicidal rate of 90% or more (almost completely withered))
Rice flat sedge; [6]
  Herbicidal effect on E (rice flat sedge), foliage application: 4 (Herbicidal rate of 70% or more and less than 90%)
Italian ryegrass [1]; [6]
  K: Italian ryegrass, herbicidal effect grade: 0 (Herbicidal rate of 5% or less (almost no effect))
windgrass; [6]
  L: windgrass, herbicidal effect grade: 0 (Herbicidal rate of 5% or less (almost no effect))
Lambsquarters [2]; [6]
  O: lambsquarters, herbicidal effect grade: 0 (Herbicidal rate of 5% or less (almost no effect))
chickweed; [6]
  P: chickweed, herbicidal effect grade: 0 (Herbicidal rate of 5% or less (almost no effect))
Southern crabgrass; [7]
  herbicidal effect on southern crabgrass (F): 3 (Herbicidal rate of 40% or more and less than 70%)
Green foxtail; [7]
  herbicidal effect on green foxtail (G): 2 (Herbicidal rate of 20% or more and less than 40%)
Wild oat; [7]
  herbicidal effect on wild oat (I): 1 (Herbicidal rate of 5% or more and less than 20%)
blackgrass; [7]
  herbicidal effect on blackgrass (J): 0 (Herbicidal rate of 5% or less (almost no effect))
Italian ryegrass [3]; [7]
  herbicidal effect on Italian ryegrass (K): 0 (Herbicidal rate of 5% or less (almost no effect))
velvetleaf; [7]
  herbicidal effect on velvetleaf (M): 4 (Herbicidal rate of 70% or more and less than 90%)
Lambsquarters [4]; [7]
  herbicidal effect on lambsquarters (O): 3 (Herbicidal rate of 40% or more and less than 70%)

Reference: patent publication US20230085307A1, “PYRIDAZINONE COMPOUND AND HERBICIDE” (NISSAN CHEMICAL CORPORATION, priority 2019, published 2023)
